Read-outs that look alike come from different tables or passages of the source.
Tests used:
[1] = tested on: human airway smooth muscle; experiment: Measurement of cell shortening in human ASM cells; type: cell-based; conditions: chloroquine after Mch
Procedure: Human lung tissue was obtained (with informed consent) from patients undergoing surgery (lobectomy) for lung cancer at the Department of Surgery and the Department of Pathology at the Univ. of Massachusetts Memorial Med Ctr (Worcester, Mass.). The tumors were identified as nonsmall cell carcinoma (adenocarcinoma, squamous cell carcinoma). Intrapulmonary airways were dissected out and cleaned free of the connective tissues. These airways were either cut into the rings ([…]) for force measurements the same as for mouse airway tissues, or digested with the same enzymes, dissociation medium and isolation procedure as for single mouse ASM cells.
Myocytes were placed into a recording chamber superfused with the bath solution for patch clamp experiments at room temperature. Cells loaded with Fluo-3 were imaged using a custom-built wide-field digital imaging system and their lengths were determined using custom software to manually trace down the center of the cell.

mouse airway strips = conditions: all at 1 mM; [Ca2+]i clamped; α-toxin permeabilized
Mouse ASM cells = experiment: Measurement of Ca2+ sparks / local Ca2+ events in mouse ASM cells
L-type VDCCs = conditions: chloroquine 1 mM; for inhibition of L-type Ca2+ channel currents: Ba2+ as charge carrier
mouse urethra = experiment: Mouse urethral contraction induced by contractile agonists; conditions: pretreatment; Chloro 1 mM; CDCA 100 μM
Description: […] were pretreated with bitter tastants, and then stimulated with contractile agonists. Contractile agonists alone were used as the control.

[2] = tested on: isolated smooth muscle cells from mouse internal anal sphincter; experiment: [Ca2+]i in isolated smooth muscle cells from mouse internal anal sphincter; type: cell-based; conditions: CDCA 100 μM; chloroquine 1 mM; denatonium 1 mM
Description: Fluorescence images using fluo-3 as a calcium indicator were obtained using a custom-built wide-field digital imaging system. The camera was interfaced to a custom made inverted microscope, and the cells were imaged using either a 20× Nikon 1.3 NA for global [Ca^2+] measurement or a 60× Nikon 1.4 NA oil for Ca^2+ spark measurement. The 488 nm line of an Argon Ion laser provided fluorescence excitation, with a shutter to control exposure duration, and emission of the Ca^2+ indicator was monitored at wavelengths >500 nm. The images were acquired at the speed of either 1 Hz for global [Ca^2+] measurement or 50 Hz for Ca^2+ spark measurement. Subsequent image processing and analysis was performed off line using a custom-designed software package, running on a Linux/PC workstation. [Ca^2+]i was represented as ΔF/F0*100 with F calculated by integrating fluo-3 over entire cells for global [Ca^2+], or just the value at the brightest pixel (i.e., epicenter pixel) for Ca^2+ sparks.

## CCN(CC)CCCC(C)Nc1ccnc2cc(Cl)ccc12 (centres unmarked) [chloroquine]
[1]
  cell length, % of the control length: 94±5%
Mouse airway strips
  relaxation of ASM at fixed [Ca2+]i: failed to relax
Mouse ASM cells; chloroquine 10 μM for 2 mins, 13 cells without global rise, control 2.13±0.24
  Ca2+ spark frequency: 1.62±0.21 Hz
Mouse ASM cells; chloroquine 10 μM for 2 mins, n=13, control 20.6±1.69
  Ca2+ spark amplitude (ΔF/F0 at the brightest location): 18.1±1.3
Mouse ASM cells; chloroquine 10 μM, cells pretreated with 100 μM ryanodine, 14 cells
  local Ca2+ events (Ca2+ puffs or sparks): no detectable local Ca^2+ events
L-type VDCCs
  time to full inhibition of L-type Ca2+ channel currents: ≤ 2 min
  inhibition of L-type Ca2+ channel currents: fully inhibited
L-type VDCCs; listed as Chloro
  inhibition of L-type Ca2+ channel currents: blocked
Mouse urethra
  effect on 60 mM KCl-induced contraction: blocked
  effect on alpha1-agonist phenylephrine-induced contraction: inhibited
[2]
  effect on the increase in [Ca2+]i induced by 60 mM KCl: fully reversed
